# Results published in patent publication US12686652B2, “Methods of increasing irrigation water and fertilizer delivery to soil using formic acid and formate salts, making a formate salt from carbon dioxide, and generating a carbon credit” (Deerpoint Group, Inc., priority 2023, dated 2026).
# Several values for one entry are separate records, joined by “and”; a condition that tells them apart may be missing. Equal entries are not always repeated. Where two headings read alike, the source gives them in different places.
# Legend:
# [1] = first pass
# Text: The irrigation water at the second farm was from a different source than the first farm.
# [2] = ICP and flow injection (FIA) analyses of solutions passed through soil columns, second farm; conditions: single soil sample
# Text: FIA was used to determine the content of the listed anion (e.g., NO3, Cl, PO4, etc.). Results are presented from a single soil sample.
# [3] = for Drainage Rate: Time (50 g), percentage relative to irrigation water / Drainage Rate: liquid eluted at 60 mins, percentage relative to irrigation water / Drainage Rate: liquid eluted at 120 mins, percentage relative to irrigation water / Liquid Eluted after 60 min / Liquid Eluted after 120 min / Time (50 g of liquid, in min) / More liquid eluted by mass than the irrigation water: first farm soil; for Liquid Eluted after 60 min / Liquid Eluted after 120 min / Time (50 g of liquid, in min): Ca formate 22 ppm by moles, HCO2H 0.33% by weight, average of two columns
# Text: The objective was to investigate the behavior of different irrigation water treatments and determine the relative amounts of water that passed through the soil columns. The column retention times reflect the rate at which the liquid passes through the soil. Understanding these retention times provides insights about the transport and movement of irrigation water (and any fertilizers dissolved therein) through the soil, which has implications for the volume of water passing into and through the root zone, nutrient availability to crops, leaching of contaminants, and overall soil health.
# The data in Table 1 is for the average of the two soil samples.
# [4] = first farm soil, duplicate columns A and B
# [5] = for Solubility as percentage of the solubility of potassium formate in water: 68-86° F. (20-30° C.); for Solubility (g K2O/100 g H2O): water
# Text: The table below lists the solubilities of various potassium fertilizers in water (as K2O) on a weight basis:
# [6] = 1st pass, Alternating = formic acid pass
# [7] = 2nd pass, Alternating = calcium formate pass
# [8] = 3rd pass, Alternating = formic acid pass
# [9] = 4th pass, Alternating = calcium formate pass
# 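For Mn in solution passed through soil column (ICP) in this document: eluate from PVC columns holding 100 g of dry ground farm soil, analysed by ICP-OES for element content after the solution had drained through, irrigation water measured as received for reference.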
smiles,measurement,setting,value
"O=CO [HCO2H, formic acid]",Liquid retained by the soil samples on average,"[1]; dry soil, second farm (FIG. 3)",41 to 42 mL
same,Time of first appearance of liquid from the columns on average,"[1]; dry soil, second farm (FIG. 3)",< 20 min
same,Amount of liquid passed through the columns compared with irrigation water at the same lengths of time,"[1]; second farm, from 20-30 minutes up to 240 minutes",more than three times as much
same,B in solution passed through soil column (ICP),[2]; [6],0.6 ppm
same,Ca in solution passed through soil column (ICP),[2]; [6],260.7 ppm
same,Cl^− in solution passed through soil column (FIA),[2]; [6],304.0 ppm
same,K in solution passed through soil column (ICP),[2]; [6],9.7 ppm
same,Mg in solution passed through soil column (ICP),[2]; [6],69.3 ppm
same,NO3^− in solution passed through soil column (FIA),[2]; [6],0.0 ppm
same,Na in solution passed through soil column (ICP),[2]; [6],345.5 ppm
same,P in solution passed through soil column (ICP),[2]; [6],0.7 ppm
same,S in solution passed through soil column (ICP),[2]; [6],43.8 ppm
same,Si in solution passed through soil column (ICP),[2]; [6],31.8 ppm
same,B in solution passed through soil column (ICP),[2]; [7],0.5 ppm
same,Ca in solution passed through soil column (ICP),[2]; [7],312.7 ppm
same,Cl^− in solution passed through soil column (FIA),[2]; [7],102.8 ppm
same,K in solution passed through soil column (ICP),[2]; [7],9.0 ppm
same,Mg in solution passed through soil column (ICP),[2]; [7],81.3 ppm
same,NO3^− in solution passed through soil column (FIA),[2]; [7],0.0 ppm
same,Na in solution passed through soil column (ICP),[2]; [7],175.2 ppm
same,P in solution passed through soil column (ICP),[2]; [7],1.9 ppm
same,S in solution passed through soil column (ICP),[2]; [7],11.4 ppm
same,Si in solution passed through soil column (ICP),[2]; [7],43.1 ppm
same,B in solution passed through soil column (ICP),[2]; [8],0.4 ppm
same,Ca in solution passed through soil column (ICP),[2]; [8],337.4 ppm
same,Cl^− in solution passed through soil column (FIA),[2]; [8],91.7 ppm
same,K in solution passed through soil column (ICP),[2]; [8],9.9 ppm
same,Mg in solution passed through soil column (ICP),[2]; [8],84.0 ppm
same,NO3^− in solution passed through soil column (FIA),[2]; [8],0.0 ppm
same,Na in solution passed through soil column (ICP),[2]; [8],79.9 ppm
same,P in solution passed through soil column (ICP),[2]; [8],5.8 ppm
same,S in solution passed through soil column (ICP),[2]; [8],8.0 ppm
same,Si in solution passed through soil column (ICP),[2]; [8],51.9 ppm
same,B in solution passed through soil column (ICP),[2]; [9],0.3 ppm
same,Ca in solution passed through soil column (ICP),[2]; [9],286.6 ppm
same,Cl^− in solution passed through soil column (FIA),[2]; [9],92.9 ppm
same,K in solution passed through soil column (ICP),[2]; [9],10.6 ppm
same,Mg in solution passed through soil column (ICP),[2]; [9],65.5 ppm
same,NO3^− in solution passed through soil column (FIA),[2]; [9],0.0 ppm
same,Na in solution passed through soil column (ICP),[2]; [9],66.1 ppm
same,P in solution passed through soil column (ICP),[2]; [9],6.4 ppm
same,S in solution passed through soil column (ICP),[2]; [9],8.3 ppm
same,Si in solution passed through soil column (ICP),[2]; [9],65.2 ppm
same,"Drainage Rate: Time (50 g), percentage relative to irrigation water",[3]; 1st pass,50.0%
same,"Drainage Rate: liquid eluted at 60 mins, percentage relative to irrigation water",[3]; 1st pass,214%
same,"Drainage Rate: liquid eluted at 120 mins, percentage relative to irrigation water",[3]; 1st pass,168%
same,Liquid Eluted after 60 min,[3]; 1st pass,34.1 g
same,Liquid Eluted after 120 min,[3]; 1st pass,59.7 g
same,"Time (50 g of liquid, in min)",[3]; 1st pass,90 min
same,"Drainage Rate: Time (50 g), percentage relative to irrigation water",[3]; 2nd pass,50.0%
same,"Drainage Rate: liquid eluted at 60 mins, percentage relative to irrigation water",[3]; 2nd pass,206%
same,"Drainage Rate: liquid eluted at 120 mins, percentage relative to irrigation water",[3]; 2nd pass,198%
same,Liquid Eluted after 60 min,[3]; 2nd pass,43.9 g
same,Liquid Eluted after 120 min,[3]; 2nd pass,78.9 g
same,"Time (50 g of liquid, in min)",[3]; 2nd pass,90 min
same,"Drainage Rate: Time (50 g), percentage relative to irrigation water",[3]; 3rd pass,50.0%
same,"Drainage Rate: liquid eluted at 60 mins, percentage relative to irrigation water",[3]; 3rd pass,189%
same,"Drainage Rate: liquid eluted at 120 mins, percentage relative to irrigation water",[3]; 3rd pass,189%
same,Liquid Eluted after 60 min,[3]; 3rd pass,36.0 g
same,Liquid Eluted after 120 min,[3]; 3rd pass,68.3 g
same,"Time (50 g of liquid, in min)",[3]; 3rd pass,90 min
same,"Drainage Rate: Time (50 g), percentage relative to irrigation water",[3]; 4th pass,50.0%
same,"Drainage Rate: liquid eluted at 60 mins, percentage relative to irrigation water",[3]; 4th pass,207%
same,"Drainage Rate: liquid eluted at 120 mins, percentage relative to irrigation water",[3]; 4th pass,183%
same,Liquid Eluted after 60 min,[3]; 4th pass,40.5 g
same,Liquid Eluted after 120 min,[3]; 4th pass,69.5 g
same,"Time (50 g of liquid, in min)",[3]; 4th pass,90 min
same,Liquid retained by the soil samples on average,"[3]; first pass, dry soil, first farm, 100 ml added (FIG. 1)",about 36 ml
same,More liquid eluted by mass than the irrigation water,[3]; first pass,170-210%
same,More liquid eluted by mass than the irrigation water,[3]; fourth pass,180-210%
same,More liquid eluted by mass than the irrigation water,[3]; second pass,200-210%
same,More liquid eluted by mass than the irrigation water,[3]; third pass,~ 190%
same,B in solution passed through soil column (ICP),[4]; 1st pass,4.34 ppm and 4.25 ppm
same,Ca in solution passed through soil column (ICP),[4]; 1st pass,268.8 ppm and 261.2 ppm
same,K in solution passed through soil column (ICP),[4]; 1st pass,19.52 ppm and 18.52 ppm
same,Mg in solution passed through soil column (ICP),[4]; 1st pass,107.6 ppm and 103.1 ppm
same,Mn in solution passed through soil column (ICP),[4]; 1st pass,4.40 ppm and 4.25 ppm
same,Na in solution passed through soil column (ICP),[4]; 1st pass,111.2 ppm and 109.8 ppm
same,P in solution passed through soil column (ICP),[4]; 1st pass,1.06 ppm and 0.55 ppm
same,S in solution passed through soil column (ICP),[4]; 1st pass,83.5 ppm and 74.5 ppm
same,Si in solution passed through soil column (ICP),[4]; 1st pass,31.3 ppm and 30.9 ppm
same,B in solution passed through soil column (ICP),[4]; 2nd pass,2.42 ppm and 2.41 ppm
same,Ca in solution passed through soil column (ICP),[4]; 2nd pass,173.7 ppm and 205.0 ppm
same,K in solution passed through soil column (ICP),[4]; 2nd pass,15.36 ppm and 17.82 ppm
same,Mg in solution passed through soil column (ICP),[4]; 2nd pass,69.7 ppm and 79.2 ppm
same,Mn in solution passed through soil column (ICP),[4]; 2nd pass,3.32 ppm and 3.98 ppm
same,Na in solution passed through soil column (ICP),[4]; 2nd pass,53.9 ppm and 49.3 ppm
same,P in solution passed through soil column (ICP),[4]; 2nd pass,1.01 ppm and 0.73 ppm
same,S in solution passed through soil column (ICP),[4]; 2nd pass,22.8 ppm and 22.1 ppm
same,Si in solution passed through soil column (ICP),[4]; 2nd pass,34.1 ppm and 40.9 ppm
same,B in solution passed through soil column (ICP),[4]; 3rd pass,2.09 ppm and 1.82 ppm
same,Ca in solution passed through soil column (ICP),[4]; 3rd pass,167.8 ppm and 176.4 ppm
same,K in solution passed through soil column (ICP),[4]; 3rd pass,14.81 ppm and 16.46 ppm
same,Mg in solution passed through soil column (ICP),[4]; 3rd pass,66.6 ppm and 67.2 ppm
same,Mn in solution passed through soil column (ICP),[4]; 3rd pass,5.00 ppm and 5.23 ppm
same,Na in solution passed through soil column (ICP),[4]; 3rd pass,36.5 ppm and 31.2 ppm
same,P in solution passed through soil column (ICP),[4]; 3rd pass,1.09 ppm and 0.90 ppm
same,S in solution passed through soil column (ICP),[4]; 3rd pass,13.4 ppm and 11.5 ppm
same,Si in solution passed through soil column (ICP),[4]; 3rd pass,46.9 ppm and 49.9 ppm
same,B in solution passed through soil column (ICP),[4]; 4th pass,0.79 ppm and 0.73 ppm
same,Ca in solution passed through soil column (ICP),[4]; 4th pass,130.3 ppm and 140.7 ppm
same,K in solution passed through soil column (ICP),[4]; 4th pass,13.34 ppm and 15.64 ppm
same,Mg in solution passed through soil column (ICP),[4]; 4th pass,50.6 ppm and 52.5 ppm
same,Mn in solution passed through soil column (ICP),[4]; 4th pass,4.46 ppm and 4.84 ppm
same,Na in solution passed through soil column (ICP),[4]; 4th pass,16.6 ppm and 16.4 ppm
same,P in solution passed through soil column (ICP),[4]; 4th pass,1.33 ppm and 1.63 ppm
same,S in solution passed through soil column (ICP),[4]; 4th pass,3.7 ppm and 3.6 ppm
same,Si in solution passed through soil column (ICP),[4]; 4th pass,34.1 ppm and 35.3 ppm
"O=S([O-])([O-])=S.[K+].[K+] [K2SSO3, potassium thiosulfate]",Solubility as percentage of the solubility of potassium formate in water,[5],about 40%
same,Solubility (g K2O/100 g H2O),[5]; 32 ° F.,48 g K2O/100 g H2O
same,Solubility (g K2O/100 g H2O),[5]; 68 ° F.,77 g K2O/100 g H2O
same,Solubility (g K2O/100 g H2O),[5]; 86 ° F.,87 g K2O/100 g H2O
"[Cl-].[K+] [KCl, potassium chloride]",Solubility as percentage of the solubility of potassium formate in water,[5],about 12%
same,Solubility (g K2O/100 g H2O),[5]; 32 ° F.,18 g K2O/100 g H2O
same,Solubility (g K2O/100 g H2O),[5]; 68 ° F.,22 g K2O/100 g H2O
same,Solubility (g K2O/100 g H2O),[5]; 86 ° F.,24 g K2O/100 g H2O
